Source: patent US12291518B2, “Thyroid hormone receptor agonists and use thereof” (Eccogene Inc., priority 2020, dated 2025)

Columns and labels:
THR beta-LBD = molecular target: T1, THR beta-LBD (Homo sapiens, UniProt P10828); assay: THR-β Coactivator Peptide Recruitment Assay (LanthaScreen TR-FRET); format: biochemical; conditions: TR-FRET coactivator recruitment, THR beta-LBD 0.5 nM; for EC50: read-out: THRβ EC50
T1 construct: THR beta-LBD (the final concentration is 0.5 nM) was added to the 384-well assay plate; purchased Invitrogen PV4686
T1 sequence (P10828 217-461 limits assumed): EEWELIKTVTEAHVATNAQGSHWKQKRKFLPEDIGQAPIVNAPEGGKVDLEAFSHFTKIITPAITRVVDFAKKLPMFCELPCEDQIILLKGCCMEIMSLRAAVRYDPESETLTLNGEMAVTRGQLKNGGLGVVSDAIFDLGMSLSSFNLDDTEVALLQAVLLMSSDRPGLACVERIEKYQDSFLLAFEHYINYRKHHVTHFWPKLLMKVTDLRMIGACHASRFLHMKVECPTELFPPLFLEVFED
Outline: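 Agonist-driven coactivator recruitment read as a 520/495 nm TR-FRET emission ratio after 2 h at room temperature. Final concentrations: THR beta-LBD 0.5 nM, fluorescein-SRC2-2 peptide 0.1 nM, terbium anti-GST antibody 2 nM. EC50 from four-parameter dose-response fitting.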

THR alpha-LBD = molecular target: T2, THR alpha-LBD (Homo sapiens, UniProt P10827); assay: THR-α Coactivator Peptide Recruitment Assay (LanthaScreen TR-FRET); format: biochemical; conditions: TR-FRET coactivator recruitment, THR alpha-LBD 0.25 nM; for EC50: read-out: THRα EC50
T2 construct: except that THR alpha-LBD of a final concentration 0.25 nM was used; purchased Invitrogen PV4687
T2 sequence (P10827 163-410 isoform P10827-2 limits assumed, other chains not shown): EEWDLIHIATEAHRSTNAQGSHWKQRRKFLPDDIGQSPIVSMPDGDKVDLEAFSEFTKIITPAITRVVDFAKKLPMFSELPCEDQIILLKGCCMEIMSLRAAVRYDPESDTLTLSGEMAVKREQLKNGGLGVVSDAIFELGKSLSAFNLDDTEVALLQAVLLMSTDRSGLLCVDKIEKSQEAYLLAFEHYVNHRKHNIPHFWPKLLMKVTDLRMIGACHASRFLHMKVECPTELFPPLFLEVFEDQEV
Outline: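 TR-FRET coactivator recruitment with THR alpha-LBD at 0.25 nM final, Fluorescein-SRC2-2 peptide 0.1 nM and Tb-labeled anti-GST antibody 2 nM; 2 h incubation at room temperature. 520/495 nm emission ratio fitted to a four-parameter sigmoidal curve to give EC50.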

SMILES	THRβ Emax (THR beta-LBD)	EC50 (THR beta-LBD)	THRα Emax (THR alpha-LBD)	EC50 (THR alpha-LBD)
O=C(NC1CC1)C1(NS(=O)(=O)c2cc(Oc3c(Cl)cc(-n4nc(C(F)(F)F)c(=O)[nH]c4=O)cc3Cl)ccc2O)CC1 [Compound 93, N-cyclopropyl-1-((5-(2,6-dichloro-4-(3,5-dioxo-6-(trifluoromethyl)-4,5-dihydro-1,2,4-triazin-2(3H)-yl)phenoxy)-2-hydroxyphenyl)sulfonamido)cyclopropane-1-carboxamide]	B (75~90)	20 to 100 nM	C (<40)	> 1000 nM
CS(=O)(=O)CC1(NS(=O)(=O)c2cc(Oc3c(Cl)cc(-n4nc(C(F)F)c(=O)[nH]c4=O)cc3Cl)ccc2O)CC1 [Compound 94, 5-[2,6-dichloro-4-[6-(difluoromethyl)-3,5-dioxo-1,2,4-triazin-2-yl]phenoxy]-2-hydroxy-N-[1-(methylsulfonylmethyl)cyclopropyl] benzene sulfonamide]	B (75~90)	2 to 20 nM	B (40~85)	200 to 1000 nM
CS(=O)(=O)c1cc(Oc2c(Cl)cc(-n3nc(C(F)F)c(=O)[nH]c3=O)cc2Cl)ccc1O [Compound 95]	A (90~110)	< 2 nM	A (85~110)	< 2 nM
O=c1[nH]c(=O)n(-c2cc(Cl)c(Oc3ccc(O)c(S(=O)(=O)NC4C[S+]([O-])C4)c3)c(Cl)c2)nc1C(F)F (centres unmarked) [Compound 96, 5-[2,6-dichloro-4-[6-(difluoromethyl)-3,5-dioxo-1,2,4-triazin-2-yl]phenoxy]-2-hydroxy-N-(1-oxothietan-3-yl) benzenesulfonamide]	A (90~110)	20 to 100 nM	A (85~110)	200 to 1000 nM
O=c1[nH]c(=O)n(-c2cc(Cl)c(Cc3ccc(O)c(S(=O)(=O)N[C@H]4C[C@H](O)C4)c3)c(Cl)c2)nc1C(F)F [Compound 97, 5-[[2,6-dichloro-4-[6-(difluoromethyl)-3,5-dioxo-1,2,4-triazin-2-yl]phenyl]methyl]-2-hydroxy-N-(3-hydroxycyclobutyl)benzenesulfonamide]	A (90~110)	< 2 nM	A (85~110)	2 to 200 nM
O=C(N[C@H]1CCOC1)c1cc(Oc2c(Cl)cc(-n3nc(C(F)F)c(=O)[nH]c3=O)cc2Cl)ccc1O [Compound 98, (S)-5-(2,6-dichloro-4-(6-(difluoromethyl)-3,5-dioxo-4,5-dihydro-1,2,4-triazin-2 (3H)-yl)phenoxy)-2-hydroxy-N-(tetrahydrofuran-3-yl) benzamide]	B (75~90)	2 to 20 nM	B (40~85)	2 to 200 nM
CN([C@H]1C[C@H](O)C1)S(=O)(=O)c1cc(Oc2c(Cl)cc(-n3nc(C(F)F)c(=O)[nH]c3=O)cc2Cl)ccc1O [Compound 99]	B (75~90)	2 to 20 nM	A (85~110)	2 to 200 nM
O=c1[nH]c(=O)n(-c2cc(Cl)c(Oc3ccc(O)c(S(=O)(=O)[C@H]4C[C@@H](O)C4)c3)c(Cl)c2)nc1C(F)F [Compound 100, 2-(3,5-dichloro-4-(4-hydroxy-3-(((1s,3s)-3-hydroxycyclobutyl)sulfonyl)phenoxy)phenyl)-6-(difluoromethyl)-1,2,4-triazine-3,5(2H,4H)-dione]	A (90~110)	< 2 nM	A (85~110)	2 to 200 nM
O=C(NCC1(NS(=O)(=O)c2cc(Oc3c(Cl)cc(-n4nc(C(F)F)c(=O)[nH]c4=O)cc3Cl)ncc2O)CC1)C1CC1 [Compound 101]	B (75~90)	2 to 20 nM	B (40~85)	200 to 1000 nM

Second part, the compound after the results:

THRβ Emax (THR beta-LBD)	EC50 (THR beta-LBD)	THRα Emax (THR alpha-LBD)	EC50 (THR alpha-LBD)	SMILES
B (75~90)	2 to 20 nM	A (85~110)	200 to 1000 nM	CNS(=O)(=O)c1cc(Oc2c(Cl)cc(-n3nc(C#N)c(=O)[nH]c3=O)cc2Cl)ncc1O [Compound 102, 2-(2,6-dichloro-4-(6-cyano-3,5-dioxo-4,5-dihydro-1,2,4-triazin-2(3H)-yl)phenoxy)-5-hydroxy-N-methylpyridine-4-sulfonamide]
C (<75)	2 to 20 nM	B (40~85)	> 1000 nM	COCC1(NS(=O)(=O)c2cc(Oc3c(Cl)cc(-n4nc(C(F)F)c(=O)[nH]c4=O)cc3Cl)ncc2O)CC1 [Compound 103, 2-(2,6-dichloro-4-(6-(difluoromethyl)-3,5-dioxo-4,5-dihydro-1,2,4-triazin-2(3H)-yl)phenoxy)-5-hydroxy-N-(1-(methoxymethyl)cyclopropyl)pyridine-4-sulfonamide]
B (75~90)	< 2 nM	B (40~85)	2 to 200 nM	O=c1[nH]c(=O)n(-c2cc(Cl)c(Oc3cc(S(=O)(=O)N[C@H]4CCOC4)c(O)cn3)c(Cl)c2)nc1C(F)F [Compound 104, (S)-2-(2,6-dichloro-4-(6-(difluoromethyl)-3,5-dioxo-4,5-dihydro-1,2,4-triazin-2(3H)-yl)phenoxy)-5-hydroxy-N-(tetrahydrofuran-3-yl)pyridine-4-sulfonamide]
B (75~90)	< 2 nM	A (85~110)	2 to 200 nM	O=c1[nH]c(=O)n(-c2cc(Cl)c(Oc3cc(S(=O)(=O)NC4CC(F)(F)C4)c(O)cn3)c(Cl)c2)nc1C(F)F [Compound 105, 2-(2,6-dichloro-4-(6-(difluoromethyl)-3,5-dioxo-4,5-dihydro-1,2,4-triazin-2(3H)-yl)phenoxy)-N-(3,3-difluorocyclobutyl)-5-hydroxypyridine-4-sulfonamide]
B (75~90)	2 to 20 nM	A (85~110)	2 to 200 nM	O=c1[nH]c(=O)n(-c2cc(Cl)c(Oc3cc(S(=O)(=O)N[C@@H]4CCOC4)c(O)cn3)c(Cl)c2)nc1C(F)F [Compound 106, (R)-2-(2,6-dichloro-4-(6-(difluoromethyl)-3,5-dioxo-4,5-dihydro-1,2,4-triazin-2(3H)-yl)phenoxy)-5-hydroxy-N-(tetrahydrofuran-3-yl)pyridine-4-sulfonamide]
B (75~90)	2 to 20 nM	B (40~85)	2 to 200 nM	O=c1[nH]c(=O)n(-c2cc(Cl)c(Oc3cc(S(=O)(=O)N4CC(O)C4)c(O)cn3)c(Cl)c2)nc1C(F)F [Compound 107, 2-(3,5-dichloro-4-((5-hydroxy-4-((3-hydroxyazetidin-1-yl)sulfonyl)pyridin-2-yl)oxy)phenyl)-6-(difluoromethyl)-1,2,4-triazine-3,5(2H,4H)-dione]
B (75~90)	2 to 20 nM	B (40~85)	2 to 200 nM	O=c1[nH]c(=O)n(-c2cc(Cl)c(Oc3cc(S(=O)(=O)N4CC[C@H](O)C4)c(O)cn3)c(Cl)c2)nc1C(F)F [Compound 108, (S)-2-(3,5-dichloro-4-((5-hydroxy-4-((3-hydroxypyrrolidin-1-yl)sulfonyl)pyridin-2-yl)oxy)phenyl)-6-(difluoromethyl)-1,2,4-triazine-3,5(2H,4H)-dione]
B (75~90)	< 2 nM	A (85~110)	2 to 200 nM	O=c1[nH]c(=O)n(-c2cc(Cl)c(Oc3cc(S(=O)(=O)N4CC(F)(F)C4)c(O)cn3)c(Cl)c2)nc1C(F)F [Compound 109, 2-(3,5-dichloro-4-((4-((3,3-difluoroazetidin-1-yl)sulfonyl)-5-hydroxypyridin-2-yl)oxy)phenyl)-6-(difluoromethyl)-1,2,4-triazine-3,5(2H,4H)-dione]
